According to US20240385182A1, “MASKED FLUOROGENIC LIPID COMPOUNDS, LIPID PARTICLES COMPRISING THE SAME, AND METHODS OF USE THEREOF” (Rutgers, The State University of New Jersey, priority 2023, published 2024):

Experiments:
HeLa and RAW 264.7 cells = assay: MTT cell viability assay; format: cell-based; conditions: 8-250 μM, 24-hour period
Procedure: With a feasible liposome preparation and treatment protocol established for live cell imaging, attention was turned to assessing the cytocompatibility of the LNPs, with or without DPPC-TC-ONOO^−, DPPC-TC, and the oxa-spiro[4,5] decenone 6a. A standard 3-(4,5-dimethylthiazol-2-yl)-2,5-diphenyl tetrazolium bromide (MTT) cell viability assay in HeLa and RAW 264.7 cells treated with these molecules (8-250 μM) over a 24-hour period. The dose-response curves provided high IC50 values for each compound: DPPC-TC-ONOO− (≥100 μM), DPPC-TC (≥50 μM), and 6 (≥70 μM).

HeLa cells = assay: Confocal imaging and colocalization in live HeLa cells; format: cell-based; conditions: LNPs, no stimulation
Procedure: FIGS. 9A-9E: confocal imaging of lipid environments targeted by ONOO^− in live HeLa cells. Cells were seeded into glass microscope dishes, incubated with LNPs (50 μM) and stained with organelle trackers and/or actin dye prior to imaging. LNPs obtained from a 47.5:47.5:5.0 molar ratio of DOTMA, DOPE, and DPPC-TC-ONOO^−. FIG. 9A: cells treated with LNPs, stimulated with IFN-γ/LPS/PMA. Time coarse images acquired upon PMA treatment. FIG. 9B: cells treated with LNPs and 1400 W. FIG. 9C: cells treated with LNPs, then with 1400 W and IFN-γ/LPS/PMA. FIGS. 9D-9E: quantitative colocalization study of cells treated with LNPs and stimulated with IFN-γ/LPS/PMA. Pearson's correlation coefficient (PCC) was calculated for quantitative assessment. Organelle trackers: ER-Tracker™, MitoTracker™, CellLight™ Golgi-RFP, LysoTracker™. Cell cytoskeleton was assessed with CellMask™ Deep Red Actin Tracking Stain. DPPC-TC channel: 405/475 nm. Scale bars=20 μm (FIGS. 9A-9D) or 5 μm (FIG. 9E). With the utility of DPPC-TC-ONOO^− proven in synthetic protocell membranes, incorporation into live HeLa and RAW 264.7 cells was sought, which are relevant to redox-induced stress and have well-recognized pathways for RNS and ROS production. Lipid nanoparticles (LNPs) (˜100 nm in diameter) was used to deliver DPPC-TC-ONOO− into cells. This method circumvented the limited solubility of DPPC-TC-ONOO− due to the relatively hydrophobic butanone-coumarin motif. LNPs were obtained via sonication from 1,2-di-O-octadecenyl-3-trimethylammonium propane (DOTMA), 1,2-dioleoyl-sn-glycero-3-phosphoethanolamine (DOPE), and DPPC-TC-ONOO− (47.5:47.5:5.0 molar ratio), which were hydrated with a 300 mM sucrose solution. DOTMA and DOPE were chosen as the carrier lipids due to their cationic/zwitterionic natures, which has been postulated to enhance uptake through the cell membrane. The impact of different LNP compositions and incubation times on the cellular incorporation of DPPC-TC-ONOO^− was assessed. […] Specifically, LNPs containing greater than 10 mol % DPPC-TC-ONOO− were considerably more heterogenous in size (up to […] observed, in contrast to ˜100 nm) and nonuniform in vesicle lamellarity. Those with less than 4 mol % DPPC-TC-ONOO− led to insufficient fluorescence signal. To balance these counteracting factors, 5 mol % DPPC-TC-ONOO− was used, with 47.5 mol % DOTMA and DOPE, each. In these initial assays, cells were incubated with LNPs for up to 15 hours to complete the uptake and intracellular localization of DPPC-TC-ONOO−. Shorter incubation times (3-to-5 hours) led to its uptake but not subcellular localization. […] However, high serum concentration in DMEM caused interference between LNPs and serum-protein, resulting in aggregate formation as observed by microscopy. To overcome this obstacle, LNPs (50 μM) were used in a mixture of 2/3 volumetric ratio of sucrose solution and Opti-MEM™, a reduced serum medium known to increase the efficiency of lipofection. […] For a physiologically relevant stress model, the standard stimulation condition involving IFN-γ/LPS/PMA was employed. Treatment of cells with IFN-γ/LPS leads to the endogenous production of nitric oxide and PMA provokes increased levels of superoxide. These two reactive species combine to form peroxynitrite, as described elsewhere herein. […] The intracellular redox selectivity of DPPC-TC-ONOO^− was also assessed using N-(3-(aminomethyl)benzyl)-acetamidine, known as 1400 W, which inhibits the production of NO· by irreversibly binding to iNOS. […] To determine whether DPPC-TC-ONOO^− localizes and functions at a specific subcellular compartment in HeLa, a comprehensive colocalization study was performed with dyes specific for lipid-rich and membrane-enclosed organelles, including the ER, mitochondrion, Golgi apparatus, and lysosome (FIGS. 9D-9E). In addition, actin stain was used to gain a visual insight into the cytoskeletal structure of the whole cell. […]

[1] = Photophysical characterization of probes and uncaged forms (relative fluorescence quantum yield, extinction coefficient, brightness); format: physicochemical; conditions: for Brightness: in M⁻¹·cm⁻¹ (unit assumed)
Procedure: The pKa of TEG-TC was determined to be 7.1±0.1 using UV-Vis spectrophotometric measurements. Under the confocal imaging conditions (pH 7.5-8.5 with cell-free assays, pH 7.4 with cells), a substantial population of the 7-hydroxycoumarin should exist in its aryloxide form. The change in coumarin fluorogenicity was assessed upon uncaging the probes from the oxobutylphenyl carbonate by measuring the relative fluorescence quantum yield (ΦFrel) values (Table 2). Coumarin 343 was used as a standard, which has an absolute fluorescence quantum yield ([…]) of 0.63 in ethanol. The ΦFrel values of TEG-TC-ONOO^− (entry 1) and DPPC-TC-ONOO^− (entry 3) were measured as 0.08 and 0.09, respectively. […] The ΦFrel values for TEG-TC (entry 2) and DPPC-TC (entry 4), which were synthesized independently, were measured as 0.66 and 0.64, respectively.
Next, the impact of caging and uncaging of the coumarin or fluorescein moieties on their fluorogenicity was assessed by measuring the relative fluorescence quantum yield (ΦFrel) values (Table 3). Coumarin 343 was used as the standard for measuring ΦFrel of the triazole-coumarin compounds (TEG-TC-H2S, TEG-TC, DPPC-TC-H2S, and DPPC-TC) whereas fluorescein for the triazole-fluorescein compounds (TEG-TF-H2O2, TEG-TF, and DPPC-TF-H2O2, and DPPC-TF). Relative to coumarin 343, whose absolute fluorescence quantum yield (ΦF) is 0.63 in ethanol, ΦFrels of the H2S probes TEG-TC-H2S (entry 1) and DPPC-TC-H2S (entry 3) were determined to be 0.07 and 0.03, respectively.
The pKa of TEG-TC was previously found to be to be 7.1±0.1 using UV-Vis spectrophotometric measurements. Under the fluorescence activation assay conditions that are employed here (Tris 50 mM, pH 7.5), a substantial population of the coumarin moiety is expected to be in its aryloxide anion form. Relative to fluorescein, whose ΦF is 0.79 in ethanol, ΦFrel values of the H2O2 probes TEG-TF-H2O2 (entry 5) and DPPC-TF-H2O2 (entry 7) were determined to be 0.04 and 0.02, respectively.

[2] = Fluorescence activation and LoD of TEG-TC-H2S with H2S in Tris buffer
Procedure: FIGS. 13A-13D: specificity (FIGS. 13A-13B) and limit of detection (LoD) (FIGS. 13C-13D) of TEG-TC-H2S and TEG-TF-H2O2. LoD measurements for the probes TEG-TC-H2S (390/475 nm) and TEG-TF-H2O2 (485/525 nm) were performed in Tris buffer (50 mM, pH 7.5). Error bars represent the standard deviation; n=3. Single-tailed Student's t test: *, P<0.05; **, P<0.01; ***, P<0.001; ****, P<0.0001.
(§1) The redox-specificities of the non-amphiphilic probes, TEG-TC-H2S or TEG-TF-H2O2, were assessed by subjecting them to various RSS or ROS (FIGS. 13A-13B). Change in fluorescence intensity following excitation of each sample containing the respective probe was measured over 120 minutes of incubation and presented based on the signal-to-background ratio F/F0, where F and F0 are defined as the fluorescence with and without the redox species. The F/F0 of the untreated samples were set to 1 for comparisons. […] Samples containing TEG-TF-H2O2 and treated with 100 μM H2O2 presented a steady fluorescence enhancement within 2 hours, resulting in 4.4-fold higher fluorescence than those of the untreated samples (FIG. 13B).
(§2) The specificity of TEG-TC-H2S toward H2S was evaluated by comparing its reactivity against different RSS, cysteine (Cys), glutathione (GSH), sulfite (SO3^2−), and thiosulfate (S2O3^2−). At 1 mM initial concentration and a total incubation time of 2 hours, these sulfur species induced an increase in coumarin fluorescence by less than 25% compared to the untreated sample (FIG. 13A). […] The specificity of TEG-TF-H2O2 toward H2O2 was also assessed, by incubating the samples containing TEG-TF-H2O2 with 100 μM either hydroxyl radical (·OH), nitric oxide (NO), or superoxide radical (O2·^−) for 2 hours. Among these three reactive oxygen species, ·OH induced the highest fluorescence increase (2.2-fold), which was lower than that for H2O2 (4.4-fold). The relatively low yet observable reactivity of ·OH may have been due, in large part, to the residual unreacted H2O2 used for generating ·OH. […]

[3] = Specificity of TEG-TC-H2S against other RSS
Procedure: as §1
as §2, with “hours.” for “hours. Among these three reactive oxygen species, ·OH induced the highest fluorescence increase (2.2-fold), which was lower than that for H2O2 (4.4-fold). The relatively low yet observable reactivity of ·OH may have been due, in large part, to the residual unreacted H2O2 used for generating ·OH.”

[4] = Table 3, brightness compared to that of DPPC-TC-H2S
[5] = Table 3, brightness compared to that of DPPC-TF-H2O2

## CCCCCCCCCCCCCCCC(=O)OCC(COP(=O)([O-])OCC[N+](C)(C)Cc1cn(-c2cc3ccc(O)cc3oc2=O)nn1)OC(=O)CCCCCCCCCCCCCCC (racemic) [DPPC-TC]
HeLa and RAW 264.7 cells
  IC50: ≥ 50 µM
HeLa cells
  fluorescence at 405/475 nm: strong coumarin fluorescence
[1]
  Emmax: 472.0 nm
  Exmax: 398.0 nm
  Ext. Coeff.: 13749 M⁻¹ cm⁻¹
  enhanced brightness, uncaging product vs caged probe: 120 fold
  Brightness: 8799
[1]; Table 2, DPPC-TC-ONOO^− = 1.0
  Relative Brightness: 35.1
[1]; [4]
  Relative Brightness: 122.2
[1]; standard coumarin 343
  Quantum Yield (relative fluorescence quantum yield ΦFrel): 0.64

## CCCCCCCCCCCCCCCC(=O)OCC(COP(=O)([O-])OCC[N+](C)(C)Cc1cn(-c2ccc3c(c2)C(=O)OC32c3ccc(O)cc3Oc3cc(O)ccc32)nn1)OC(=O)CCCCCCCCCCCCCCC (racemic) [DPPC-TF]
[1]
  Emmax: 523.6 nm
  Exmax: 498.1 nm
  Ext. Coeff.: 28990 M⁻¹ cm⁻¹
  Brightness: 18264
[1]; [5]
  Relative Brightness: 85.3
[1]; standard fluorescein
  Quantum Yield (relative fluorescence quantum yield ΦFrel): 0.63

## [N-]=[N+]=Nc1ccc(COc2ccc3cc(-n4cc(COCCOCCOCCO)nn4)c(=O)oc3c2)cc1 [TEG-TC-H2S]
[2]; 1 mM H2S, 2 hours of incubation, Tris pH 7.5
  fluorescence compared to the sample untreated: 2.2 fold
[2]; H2S 1 mM, 2 hours
  increase in fluorescence intensity: 120%
[2]; minimum H2S concentration at which F is statistically higher than F0, 390/475 nm, Tris 50 mM pH 7.5
  LoD: 100 µM
[1]
  Emmax: 475.5 nm
  Exmax: 392.3 nm
  Ext. Coeff.: 5347 M⁻¹ cm⁻¹
  Brightness: 374
[1]; [4]
  Relative Brightness: 5.2
[1]; standard coumarin 343
  Quantum Yield (relative fluorescence quantum yield ΦFrel): 0.07
[3]
  fluorescence activation in the presence of H2S compared to the other RSS: ≥ 5 fold
[3]; Cys, GSH, SO3^2−, S2O3^2− at 1 mM, 2 hours
  increase in coumarin fluorescence compared to the untreated sample: less than 25%

## O=C1OC2(c3ccc(O)cc3Oc3cc(O)ccc32)c2ccc(-n3cc(COCCOCCOCCO)nn3)cc21 [TEG-TF]
[1]
  Emmax: 522.6 nm
  Exmax: 494.3 nm
  Ext. Coeff.: 35982 M⁻¹ cm⁻¹
  Brightness: 26267
[1]; [5]
  Relative Brightness: 122.7
[1]; standard fluorescein
  Quantum Yield (relative fluorescence quantum yield ΦFrel): 0.73

## oxa-spiro[4,5] decenone [Compound 6]
HeLa and RAW 264.7 cells
  IC50: ≥ 70 µM
